Series [1] in a line: Vm value of the compound. It is filed as ADME.
For series [2], the system named is NC(CCC(=O)NC(CSC(=O)N(O)c1ccccc1)C(=O)NCC(=O)O)C(=O)O. As to conditions: Bos taurus.
Description: Michaelis-Menten constant was tested for inhibitory activity against bovine liver glyoxalase II

As usually defined, the Km is the concentration of substrate that gives half-maximal velocity.

In the case of `NC(CCC(=O)NC(CSC(=O)N(O)c1ccccc1)C(=O)NCC(=O)O)C(=O)O` (centres undefined), the Vm in series [1] is 4.6e-06. Turning to “Hydroxyacylglutathione hydrolase, mitochondrial (Homo sapiens) (from UniProt Q16775)”, the Km in series [2] was found to be 13 µM. In series [1], `NC(CCC(=O)NC(CSC(=O)N(O)c1ccc(Br)cc1)C(=O)NCC(=O)O)C(=O)O` (centres undefined) registered a Vm of 2.1e-05.

Consider `NC(CCC(=O)NC(CSC(=O)N(O)c1ccc(Cl)cc1)C(=O)NCC(=O)O)C(=O)O` (centres undefined), for which the Vm in series [1] turned out to be 1.5e-05.

The record behind these values is ChEMBL document CHEMBL1127571, “S-(N-aryl-N-hydroxycarbamoyl)glutathione derivatives are tight-binding inhibitors of glyoxalase I and slow substrates for glyoxalase II” (J Med Chem, 1994).
